What was measured:
[1] = target: T1, Serine/threonine-protein kinase DCLK1 (Homo sapiens) (UniProt O15075); assay: DCAMKL1 SGC Tm panel (DSF); details: for ΔTm: Compound concentration 10.0 uM
T1 sequence (whole entry): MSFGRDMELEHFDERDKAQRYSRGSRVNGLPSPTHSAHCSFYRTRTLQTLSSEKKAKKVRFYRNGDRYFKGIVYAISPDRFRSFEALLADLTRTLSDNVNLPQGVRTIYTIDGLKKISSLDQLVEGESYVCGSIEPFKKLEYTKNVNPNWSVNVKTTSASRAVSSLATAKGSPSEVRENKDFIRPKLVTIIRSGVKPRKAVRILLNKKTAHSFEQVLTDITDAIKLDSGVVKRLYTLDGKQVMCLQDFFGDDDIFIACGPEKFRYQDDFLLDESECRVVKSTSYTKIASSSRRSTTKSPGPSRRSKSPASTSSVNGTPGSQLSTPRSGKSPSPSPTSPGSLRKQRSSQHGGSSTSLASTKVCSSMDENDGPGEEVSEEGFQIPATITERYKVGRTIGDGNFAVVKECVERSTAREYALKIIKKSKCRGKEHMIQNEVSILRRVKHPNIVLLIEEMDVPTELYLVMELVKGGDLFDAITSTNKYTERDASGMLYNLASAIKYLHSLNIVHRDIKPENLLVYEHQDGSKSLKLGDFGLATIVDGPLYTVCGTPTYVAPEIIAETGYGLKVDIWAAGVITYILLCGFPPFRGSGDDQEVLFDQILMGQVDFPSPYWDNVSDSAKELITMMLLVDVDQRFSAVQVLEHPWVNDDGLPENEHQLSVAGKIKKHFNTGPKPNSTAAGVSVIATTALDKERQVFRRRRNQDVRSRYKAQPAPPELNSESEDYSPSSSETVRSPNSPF

[2] = target: T2, Serine/threonine-protein kinase ULK1 (Homo sapiens) (UniProt O75385); assay: ULK1 SGC Tm panel (DSF); details: for ΔTm: Compound concentration 10.0 uM
T2 sequence (whole entry): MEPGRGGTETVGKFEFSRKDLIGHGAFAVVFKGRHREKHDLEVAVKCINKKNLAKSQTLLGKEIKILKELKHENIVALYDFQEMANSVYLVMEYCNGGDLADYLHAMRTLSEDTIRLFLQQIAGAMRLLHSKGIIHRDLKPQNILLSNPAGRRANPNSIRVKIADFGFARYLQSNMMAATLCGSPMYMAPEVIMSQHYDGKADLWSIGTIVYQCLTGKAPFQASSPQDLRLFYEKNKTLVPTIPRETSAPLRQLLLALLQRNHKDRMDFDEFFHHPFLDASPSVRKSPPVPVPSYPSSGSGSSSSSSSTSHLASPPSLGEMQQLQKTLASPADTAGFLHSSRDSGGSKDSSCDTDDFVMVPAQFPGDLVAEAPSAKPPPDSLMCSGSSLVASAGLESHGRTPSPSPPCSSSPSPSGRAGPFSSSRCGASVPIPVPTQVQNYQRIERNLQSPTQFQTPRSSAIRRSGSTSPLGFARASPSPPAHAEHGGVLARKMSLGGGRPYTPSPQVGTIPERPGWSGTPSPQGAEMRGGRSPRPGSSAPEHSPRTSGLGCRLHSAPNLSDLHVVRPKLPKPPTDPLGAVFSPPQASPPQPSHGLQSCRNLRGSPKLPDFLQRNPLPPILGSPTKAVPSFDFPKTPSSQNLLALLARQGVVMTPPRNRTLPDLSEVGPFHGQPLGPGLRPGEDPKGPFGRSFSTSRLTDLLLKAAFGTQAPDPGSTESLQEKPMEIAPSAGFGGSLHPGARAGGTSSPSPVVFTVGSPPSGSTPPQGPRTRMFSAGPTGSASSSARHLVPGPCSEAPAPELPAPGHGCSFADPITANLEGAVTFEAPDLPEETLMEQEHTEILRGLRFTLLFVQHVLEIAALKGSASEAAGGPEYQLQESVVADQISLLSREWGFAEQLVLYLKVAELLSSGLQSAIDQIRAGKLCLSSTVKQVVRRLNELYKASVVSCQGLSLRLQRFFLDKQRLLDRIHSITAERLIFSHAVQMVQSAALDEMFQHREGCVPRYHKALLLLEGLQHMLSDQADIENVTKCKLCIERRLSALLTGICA

[3] = target: T3, Serine/threonine-protein kinase ULK3 (Homo sapiens) (UniProt Q6PHR2); assay: ULK3 SGC Tm panel (DSF); details: for ΔTm: Compound concentration 10.0 uM
T3 sequence (whole entry): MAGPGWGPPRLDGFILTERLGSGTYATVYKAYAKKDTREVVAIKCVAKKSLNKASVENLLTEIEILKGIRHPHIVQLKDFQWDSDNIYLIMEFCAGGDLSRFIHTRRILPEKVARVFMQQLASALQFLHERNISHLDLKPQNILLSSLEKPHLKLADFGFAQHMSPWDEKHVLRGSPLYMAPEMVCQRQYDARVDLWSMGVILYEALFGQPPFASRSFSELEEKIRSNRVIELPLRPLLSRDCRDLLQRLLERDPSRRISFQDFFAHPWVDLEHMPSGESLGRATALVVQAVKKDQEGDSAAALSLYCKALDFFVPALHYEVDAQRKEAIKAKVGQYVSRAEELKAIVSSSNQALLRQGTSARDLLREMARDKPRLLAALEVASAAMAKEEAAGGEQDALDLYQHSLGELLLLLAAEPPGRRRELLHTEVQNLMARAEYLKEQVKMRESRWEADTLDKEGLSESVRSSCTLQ

[4] = target: D(3) dopamine receptor (Homo sapiens) (UniProt P35462); details: Compound concentration 10.0 uM
[5] = target: 5-hydroxytryptamine receptor 1A (Homo sapiens) (UniProt P08908); details: Compound concentration 10.0 uM
[6] = target: 5-hydroxytryptamine receptor 2B (Homo sapiens, UniProt P41595); details: Compound concentration 10.0 uM
[7] = target: Cyclin-dependent kinase 16 (Homo sapiens) (UniProt Q00536); assay: PCTK1 SGC Tm panel (DSF); details: for ΔTm: Compound concentration 10.0 uM
[8] = target: 5-hydroxytryptamine receptor 2C (Homo sapiens) (UniProt P28335); details: Compound concentration 10.0 uM
[9] = target: 5-hydroxytryptamine receptor 1B (Homo sapiens) (UniProt P28222); details: Compound concentration 10.0 uM
5-hydroxytryptamine receptor 1B (Homo sapiens), sequence (P28222 whole entry): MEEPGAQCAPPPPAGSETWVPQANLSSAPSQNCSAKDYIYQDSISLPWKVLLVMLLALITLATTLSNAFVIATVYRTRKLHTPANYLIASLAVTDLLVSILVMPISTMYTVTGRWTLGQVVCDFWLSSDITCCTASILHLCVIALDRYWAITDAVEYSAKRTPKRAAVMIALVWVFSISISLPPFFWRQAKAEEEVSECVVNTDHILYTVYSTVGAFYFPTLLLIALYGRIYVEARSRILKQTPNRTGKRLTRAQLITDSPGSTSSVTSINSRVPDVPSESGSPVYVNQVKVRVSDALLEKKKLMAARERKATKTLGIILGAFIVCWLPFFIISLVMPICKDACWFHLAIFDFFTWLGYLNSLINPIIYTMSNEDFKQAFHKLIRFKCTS

Cyclin-dependent kinase 16 (Homo sapiens), sequence (Q00536 whole entry): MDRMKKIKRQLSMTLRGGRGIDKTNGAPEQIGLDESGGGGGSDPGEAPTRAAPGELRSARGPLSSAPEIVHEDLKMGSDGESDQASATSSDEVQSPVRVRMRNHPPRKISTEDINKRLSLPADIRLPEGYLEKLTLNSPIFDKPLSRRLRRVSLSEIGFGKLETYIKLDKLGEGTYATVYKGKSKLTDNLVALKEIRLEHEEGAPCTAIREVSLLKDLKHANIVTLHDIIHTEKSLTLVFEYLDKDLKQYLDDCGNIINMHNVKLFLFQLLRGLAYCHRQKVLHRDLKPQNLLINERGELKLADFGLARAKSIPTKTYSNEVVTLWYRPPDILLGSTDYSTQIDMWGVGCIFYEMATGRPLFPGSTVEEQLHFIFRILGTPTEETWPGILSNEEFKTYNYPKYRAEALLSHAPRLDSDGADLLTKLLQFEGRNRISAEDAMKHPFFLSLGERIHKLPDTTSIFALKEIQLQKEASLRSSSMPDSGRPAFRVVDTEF
D(3) dopamine receptor (Homo sapiens), sequence (P35462 whole entry): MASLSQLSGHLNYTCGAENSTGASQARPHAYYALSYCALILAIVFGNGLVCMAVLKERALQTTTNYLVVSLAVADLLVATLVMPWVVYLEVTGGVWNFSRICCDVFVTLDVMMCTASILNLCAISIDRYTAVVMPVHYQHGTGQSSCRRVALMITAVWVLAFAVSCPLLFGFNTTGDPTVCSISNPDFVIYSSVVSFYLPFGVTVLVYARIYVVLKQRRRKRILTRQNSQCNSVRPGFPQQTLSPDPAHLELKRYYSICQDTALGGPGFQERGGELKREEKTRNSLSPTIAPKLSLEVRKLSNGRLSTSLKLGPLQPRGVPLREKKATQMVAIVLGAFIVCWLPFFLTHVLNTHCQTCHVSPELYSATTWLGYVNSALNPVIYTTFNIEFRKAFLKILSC
5-hydroxytryptamine receptor 2B, sequence (P41595 whole entry): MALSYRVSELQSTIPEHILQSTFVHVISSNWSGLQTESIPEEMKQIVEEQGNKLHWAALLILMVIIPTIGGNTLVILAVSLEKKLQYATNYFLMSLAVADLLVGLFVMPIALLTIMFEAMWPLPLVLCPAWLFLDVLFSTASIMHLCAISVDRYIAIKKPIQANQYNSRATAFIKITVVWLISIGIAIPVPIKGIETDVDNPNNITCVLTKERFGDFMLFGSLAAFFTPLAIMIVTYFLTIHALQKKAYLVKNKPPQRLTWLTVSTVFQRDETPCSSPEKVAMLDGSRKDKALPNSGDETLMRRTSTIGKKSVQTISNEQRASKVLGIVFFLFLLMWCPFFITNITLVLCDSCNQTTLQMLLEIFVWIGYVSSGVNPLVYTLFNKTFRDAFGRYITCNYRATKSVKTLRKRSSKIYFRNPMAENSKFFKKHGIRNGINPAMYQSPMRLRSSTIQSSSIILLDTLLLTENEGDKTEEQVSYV
5-hydroxytryptamine receptor 1A (Homo sapiens), sequence (P08908 whole entry): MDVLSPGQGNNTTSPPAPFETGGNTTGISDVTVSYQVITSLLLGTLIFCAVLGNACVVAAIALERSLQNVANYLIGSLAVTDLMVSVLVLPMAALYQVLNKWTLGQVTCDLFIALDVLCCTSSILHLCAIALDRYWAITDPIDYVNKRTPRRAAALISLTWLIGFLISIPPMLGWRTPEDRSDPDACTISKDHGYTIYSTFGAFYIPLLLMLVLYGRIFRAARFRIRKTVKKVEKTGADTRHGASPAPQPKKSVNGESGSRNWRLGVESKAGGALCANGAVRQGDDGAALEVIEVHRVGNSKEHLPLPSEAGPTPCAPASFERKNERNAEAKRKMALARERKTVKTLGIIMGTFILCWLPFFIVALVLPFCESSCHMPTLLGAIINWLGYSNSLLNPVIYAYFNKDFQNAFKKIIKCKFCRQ
5-hydroxytryptamine receptor 2C (Homo sapiens), sequence (P28335 whole entry): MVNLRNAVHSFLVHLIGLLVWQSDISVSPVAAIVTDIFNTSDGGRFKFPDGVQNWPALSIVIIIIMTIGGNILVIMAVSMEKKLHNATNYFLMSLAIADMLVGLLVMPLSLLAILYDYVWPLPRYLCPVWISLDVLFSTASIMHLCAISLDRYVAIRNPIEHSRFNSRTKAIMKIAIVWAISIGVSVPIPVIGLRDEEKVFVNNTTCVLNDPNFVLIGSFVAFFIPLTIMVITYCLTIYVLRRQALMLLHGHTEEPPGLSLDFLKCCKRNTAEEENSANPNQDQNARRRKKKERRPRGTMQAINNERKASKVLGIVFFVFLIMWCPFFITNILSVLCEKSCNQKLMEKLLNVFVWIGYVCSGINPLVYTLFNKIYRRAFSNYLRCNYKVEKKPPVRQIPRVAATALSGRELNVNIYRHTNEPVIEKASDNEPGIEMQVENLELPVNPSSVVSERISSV

Row | delta Tm Staurosporine positive control [1] | ΔTm [1] | delta Tm Staurosporine positive control [2] | ΔTm [2] | delta Tm Staurosporine positive control [3] | ΔTm [3] | inhibition [4] [%] | inhibition [5] [%] | inhibition [6] [%] | delta Tm Staurosporine positive control [7] | ΔTm [7] | inhibition [8] [%] | inhibition [9] [%] | SMILES
1 | 14 | 0.237 | 13.4 | 0.528 | 18.2 | 0.301 | 13 | 29.7 | 48.2 | 7.03 | -1.23 | 14.2 | 17.6 | COC[C@H](NC(=O)c1ccn(S(C)(=O)=O)c1)C(=O)Nc1nc(-c2cccc(-c3ccn(C)n3)c2)cs1
2 | 14 | -0.00623 | 13.4 | 0.0519 | 18.2 | 0.155 | 28.2 | 23 | 86.8 | 7.03 | -1.44 | 18.3 | 27.4 | C[C@H](NC(=O)c1cn(C2(C#N)CC2)cn1)C(=O)Nc1nc(-c2cccc(-c3ccn(C)n3)c2)cs1

Reference: ChEMBL document CHEMBL5303766, “Data for DCP probe FHT-2344” (2022)
